Columns and labels:
Akt kinase = experiment: Immunoblot of phospho-Akt in MM.1 S cells; assay type: cell-based; details: data not shown; for phospho-Akt: dextrose-free media, ATP depletion, 90 minutes; for phosphorylation of Akt: 4 hours
Experimental: (§1) 5×10^6 were cells treated with 10 μM 8-NH2-Ado for the indicated times and harvested. Cell pellets were washed with cold phosphate-buffered saline (PBS; 8.1 g NaCl, 1.14 g Na2HPO4, 0.22 g KCl, and 0.25 g/L KH2PO4) and incubated with lysis buffer (50 mM HEPES, 150 mM NaCl, 1.5 mM MgCl2, 1 mM EDTA pH 8.0, 100 mM NaFI, 10 mM Na Pyrophosphate, 500 μM PMSF, 0.5% Triton X-100, 10% glycerol) at 4° C. for one hour. Lysates were centrifuged at 4° C. for 1 minute at 9000×g, and the supernatants were collected and stored at −20° C. Protein concentration was determined by Bio-Rad protein assay (BioRad Laboratories, Hercules, Calif.). Protein, at a concentration of 30 μg, was mixed with sample buffer (125 mM Tris, pH 6.8, 4% SDS, 20% glycerol, 100 mM Dithiothreitol (DTT), and 0.05% bromophenol blue), and fractionated on a pre-cast 8-16% Tris-Glycine gel (Invitrogen/Novex, Carlsbad, Calif.). Proteins were then transferred to a Polyvinylidene Fluoride (PVDF) membrane (Immobilon-P, Millipore, Bedford, Mass.): Following protein transfer, membranes were blocked with 5% non-fat milk in PBS-T (PBS with 0.1% Tween), incubated with the primary antibody overnight at 4° C. and subsequently with horseradish peroxidase linked secondary antibody (Amersham, Arlington Heights, Ill.). Blots were developed using ECL Plus Chemiluminescent Western Blotting Detection reagent (Amersham, Arlington Heights, Ill.) and the signal was visualized with X-ray film (Hyperfilm, Amersham, Arlington Heights, Ill.). For reprobing purposes, blots were stripped using Restore Western Blot Stripping Buffer from Pierce Biotechnology (Rockford, Ill.). Phospho-MKK3/6 (Ser189/207), phospho-p38 (Thr180/Tyr182), phospho-ATF-2 (Thr69/71), phospho-c-Raf (Ser259), phospho-MEK1/2 (Ser217/221), total MEK1/2, phospho-ERK1/2 (Thr202/Tyr204), total ERK1/2, phospho-p90RSK (Ser380), total RSK, phospho-PDK1 (Ser241), total PDKI, phospho-PTEN (Ser380), total PTEN, phospho-Akt (Ser473), total Akt, phospho-GSK-3β (Ser9), total GSK-3β, phospho-FKHRLI (Thr32)/-FKHR (Thr24), phospho-FKHR (Ser256) primary antibodies were obtained from Cell Signaling Technology (Beverly, Mass.). Total MKK3, total MKK6, total p38, total ATF-2, total c-Raf, total FKHR, total FKHRLI, phospho-JNK and total JNK were purchased from Santa Cruz Biotechnology (Santa Cruz, Calif.). Caspase 3, caspase 9, and PARP antibodies were obtained from Pharmingen (San Diego, Calif.) and anti-MKP1 from Upstate (Lake Placid, N.Y.). Anti-caspase 8 mouse serum was a generous gift of Dr. Marcus Peter (University of Chicago).
(§2) MM.1 S cells were exposed to 10 μM 8-NH2-Ado for 0, 0.5, 1, 2, 4 and 6 hours, after which cells were lysed as previously (Example 2). 30 μg of protein was separated by gel electrophoresis, transferred to PVDF membrane, and probed with phosphorylation-specific antibodies to MKK3/6, p38 MAPK, ATF-2, MEK1/2, ERK1/2, p90RSK, JNK1, PDK1, Akt, FKHRL1 and GSK-3β.
(§3) MM. I S cells were treated with 10 μM 8-chloro-adenosine for 0, 0.5, 1, 2, 4 or 6 hours or 10 μM of cytarabine, fludarabine, gemcitabine or 8-amino-adenosine for 4 hours. Cells were lysed as previously described and 30 μg of protein was separated by gel electrophoresis, transferred to PVDF membrane, and probed with phospho-p38 MAPK (Thr180/Tyr182) antibody.
(§4) MM.1 S cells were grown in dextrose-free media and treated with 2 μM Antimycin A, 5 mM 2-DOG, and varying concentrations of dextrose for 90 minutes. Cellular ATP levels were determined using triplicate samples in a luciferase based assay and are expressed here as a percentage of untreated control.

ERK1/2 = experiment: Immunoblot of phospho-ERK1/2 in MM.1 S cells; assay type: cell-based; details: data not shown; for phospho-ERK1/2: dextrose-free media, ATP depletion, 90 minutes; for phosphorylation of ERK1/2: 4 hours
Experimental: as §1, §2, §3, §4

p38 MAPK = experiment: Immunoblot of phospho-p38 MAPK in MM.1 S cells; assay type: cell-based
Experimental: as §1
as §2, with “GSK-3β. […] FIGS. 1A, 1B, 1C and 1D provide the results of the blots.” for “GSK-3β.”
as §3
In a parallel approach to test the involvement of cellular phosphatases, we treated MM.1 S cells with varying concentrations of the phosphatase inhibitor okadaic acid in combination with 8-NH2-Ado for 4 hours to assess whether the serine/threonine phosphatases PP2A and PPI are involved.

MM cells [1] = details: MM cells, previously shown; cited from earlier work
MM cells [2] = details: cited from earlier work

O=CC[C@@H](O)[C@H](O)[C@H](O)CO [2-DOG, 2-deoxy-D-glucose]
phospho-Akt (Akt kinase): did not reveal a decrease in phosphorylation
phospho-ERK1/2 (ERK1/2): did not reveal a decrease in phosphorylation

Nc1ccn([C@@H]2O[C@H](CO)[C@@H](O)[C@@H]2O)c(=O)n1 [cytarabine]
phosphorylation of p38 (p38 MAPK; 10 μM, 4 hours): do not cause a decrease
phosphorylation of Akt (Akt kinase; 10 μM): do not cause a decrease
cytotoxicity (MM cells [1]): cytotoxic
phosphorylation of ERK1/2 (ERK1/2; 10 μM): do not cause a decrease

Nc1nc(F)nc2c1ncn2[C@@H]1O[C@H](CO)[C@@H](O)[C@@H]1O [Fludarabine]
cytotoxicity (MM cells [1]): cytotoxic

Nc1ncnc2c1nc(Cl)n2[C@@H]1O[C@H](CO)[C@@H](O)[C@H]1O [8-chloro-adenosine]
apoptosis (MM cells [2]): induces apoptosis
phosphorylation status of p38 (p38 MAPK; 10 μM, time course 0-6 hours): does not reveal any effect
phosphorylation status of Akt kinase (Akt kinase; 10 μM, time course 0-6 hours): does not reveal any effect
phosphorylation status of ERK1/2 (ERK1/2; 10 μM, time course 0-6 hours): does not reveal any effect

Antimycin A
phospho-Akt (Akt kinase): did not reveal a decrease in phosphorylation
phospho-ERK1/2 (ERK1/2): did not reveal a decrease in phosphorylation

C=C1[C@@H](O)[C@@H]2O[C@]3(CC[C@H](/C=C/[C@@H](C)[C@@H]4CC(C)=C[C@@]5(O[C@H](C[C@@](C)(O)C(=O)O)CC[C@H]5O)O4)O3)CC[C@H]2O[C@@H]1[C@@H](O)C[C@H](C)[C@H]1O[C@@]2(CCCCO2)CC[C@H]1C [okadaic acid]
phospho-p38 in the presence of 8-NH2-Ado (p38 MAPK; 30 nM okadaic acid in combination with 8-NH2-Ado, 4 hours): partial recovery of phosphorylation
phospho-p38 levels (p38 MAPK; 30 nM okadaic acid with 10 μM 8-NH2-Ado, at 6 hours): still present
8-NH2-Ado-induced loss of p38 phosphorylation (p38 MAPK; 30 nM okadaic acid with 10 μM 8-NH2-Ado, time course): significantly delays

Nc1ccn([C@@H]2O[C@H](CO)[C@@H](O)C2(F)F)c(=O)n1 [gemcitabine]
phosphorylation of p38 (p38 MAPK; 10 μM, 4 hours): do not cause a decrease
phosphorylation of Akt (Akt kinase; 10 μM): do not cause a decrease
cytotoxicity (MM cells [1]): cytotoxic
phosphorylation of ERK1/2 (ERK1/2; 10 μM): do not cause a decrease
